# Reference: USRE47739E1, “2-(pyridin-2-ylamino)-pyrido[2,3-D]pyrimidin-7-ones” (Warner-Lambert Company LLC, priority 2002, dated 2019)
# Tests used:
# [1] = system: neointima formation; conditions: rats; cited from earlier work
# [2] = molecular target: Cdk4/Cyclin D (Homo sapiens, UniProt P11802); assay: Assay for Inhibition of Cdk4/Cyclin D; type: biochemical; conditions: 25 μM ATP, retinoblastoma protein substrate, 25° C., 15 minutes
# Protocol: (§1) The assays were carried out as described below.
# Assay for Inhibition of Cdk4/Cyclin D
# The Cdk4 enzyme assay for IC50 determination and kinetic evaluation is performed as follows. 96-well filter plates (Millipore MADVN6550) are used. […] Buffer A containing excess EDTA was used to determine the level of background ^32P in the absence of enzyme activity. All components except the ATP are added to the wells, and the plate is placed on a plate mixer for 2 minutes. The reaction is started by adding [^32P]ATP, and the plate is incubated at 25° C. for 15 minutes. The reaction is terminated by addition of 0.1 mL 20% trichloroacetic acid (TCA). The plate is kept at 4° C. for at least 1 hour to allow the substrate to precipitate. The wells are then washed five times with 0.2 mL 10% TCA, and ^32P incorporation is determined with a beta plate counter (Wallac Inc., Gaithersburg, Md.).
# [3] = molecular target: Cdk2/Cyclin A (Homo sapiens, UniProt P24941); assay: Assay for Inhibition of Cdk2/Cyclin A; type: biochemical; conditions: 12 mM ATP (so in the source), retinoblastoma protein substrate, 25° C., 15 minutes
# Protocol: as §1
# Assay for Inhibition of Cdk2/Cyclin A
# Cdk2 enzyme assays for IC50 determinations and kinetic evaluation are performed as follows. 96-well filter plates (Millipore MADVN6550) are used. […] All components except the ATP are added to the wells, and the plate is placed on a plate mixer for 2 minutes. The reaction is initiated by addition of [^32P]ATP, and the plate is incubated at 25° C. for 15 minutes. The reaction is terminated by addition of 0.1 mL 20% TCA. The plate is kept at 4° C. for at least 1 hour to allow the substrate to precipitate. The wells are then washed five times with 0.2 mL 10% TCA, and ^32P incorporation is determined with a beta plate counter (Wallac Inc., Gaithersburg, Md.).
# [4] = molecular target: FGF receptor (FGFr) tyrosine kinase (Homo sapiens, UniProt P11362); assay: Assay for Inhibition of FGFr; type: biochemical; conditions: 50 μM ATP, Poly (4:1) glutamate-tyrosine substrate, 25° C.
# Sequence of FGF receptor (FGFr) tyrosine kinase (P11362 22-822): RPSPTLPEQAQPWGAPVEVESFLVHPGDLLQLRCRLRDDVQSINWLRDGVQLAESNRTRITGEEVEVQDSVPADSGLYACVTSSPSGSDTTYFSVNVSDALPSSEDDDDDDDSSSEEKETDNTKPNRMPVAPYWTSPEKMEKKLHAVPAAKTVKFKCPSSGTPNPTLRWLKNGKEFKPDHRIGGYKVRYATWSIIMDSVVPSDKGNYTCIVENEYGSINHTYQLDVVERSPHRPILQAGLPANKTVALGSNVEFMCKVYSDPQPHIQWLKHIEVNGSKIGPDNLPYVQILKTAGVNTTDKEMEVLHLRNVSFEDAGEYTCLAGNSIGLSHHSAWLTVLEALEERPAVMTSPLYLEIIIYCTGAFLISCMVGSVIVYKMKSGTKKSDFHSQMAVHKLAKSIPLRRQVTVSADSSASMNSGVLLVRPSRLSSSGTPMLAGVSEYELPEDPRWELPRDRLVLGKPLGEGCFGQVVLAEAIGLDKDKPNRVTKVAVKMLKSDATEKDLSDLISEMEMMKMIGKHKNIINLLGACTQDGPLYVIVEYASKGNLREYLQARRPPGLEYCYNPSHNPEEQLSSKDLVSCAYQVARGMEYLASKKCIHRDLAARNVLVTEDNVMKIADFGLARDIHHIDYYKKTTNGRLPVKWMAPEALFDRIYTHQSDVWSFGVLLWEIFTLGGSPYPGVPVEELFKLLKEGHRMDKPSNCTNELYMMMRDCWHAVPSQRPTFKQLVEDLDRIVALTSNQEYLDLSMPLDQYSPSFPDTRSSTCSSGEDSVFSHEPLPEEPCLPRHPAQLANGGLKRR
# Protocol: as §1
# Assay for Inhibition of FGFr
# For FGF receptor (FGFr) tyrosine kinase assays 96-well plates (100 μL/incubation/well), and conditions are optimized to measure the incorporation of ^32P from [γ^32P]ATP into a glutamate-tyrosine co-polymer substrate. Briefly, to each well is added 82.5 μL incubation buffer B (25 mM Hepes (pH 7.0), 150 mM NaCl, 0.1% Triton X-100, 0.2 mM PMSF, 0.2 mM Na3VO4, 10 mM MnCl2) and 750 μg/mL Poly (4:1) glutamate-tyrosine followed by 2.5 μL of the test compound in buffer B and 5 μL of a 7.5 μg/μL FGFr solution to initiate the reaction. Following a 10-minute incubation at 25° C., […] [γ^32P]ATP (0.4 μCi plus 50 μM ATP) is added to each well, and samples are incubated for an additional 10 minutes at 25° C. The reaction is terminated by the addition of 100 μL 30% trichloroacetic acid (TCA) containing 20 mM sodium pyrophosphate and precipitation of material onto glass fiber mats (Wallac). […] Nonspecific activity is defined as radioactivity retained on the filters following incubation of samples with buffer alone (no enzyme). Specific enzymatic activity (enzyme plus buffer) is defined as total activity minus nonspecific activity.
# Sequence of Cdk4/Cyclin D (P11802 whole entry, species assumed): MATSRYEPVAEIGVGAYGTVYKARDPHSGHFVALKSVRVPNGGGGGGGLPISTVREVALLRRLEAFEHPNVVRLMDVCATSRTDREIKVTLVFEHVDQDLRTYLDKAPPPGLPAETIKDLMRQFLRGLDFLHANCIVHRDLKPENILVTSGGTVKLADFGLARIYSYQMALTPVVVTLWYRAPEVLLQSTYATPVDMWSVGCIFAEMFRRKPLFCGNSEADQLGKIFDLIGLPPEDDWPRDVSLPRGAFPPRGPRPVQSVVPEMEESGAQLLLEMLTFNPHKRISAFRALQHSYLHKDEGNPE
# Sequence of Cdk4/Cyclin D (P24385 whole entry partner, species assumed): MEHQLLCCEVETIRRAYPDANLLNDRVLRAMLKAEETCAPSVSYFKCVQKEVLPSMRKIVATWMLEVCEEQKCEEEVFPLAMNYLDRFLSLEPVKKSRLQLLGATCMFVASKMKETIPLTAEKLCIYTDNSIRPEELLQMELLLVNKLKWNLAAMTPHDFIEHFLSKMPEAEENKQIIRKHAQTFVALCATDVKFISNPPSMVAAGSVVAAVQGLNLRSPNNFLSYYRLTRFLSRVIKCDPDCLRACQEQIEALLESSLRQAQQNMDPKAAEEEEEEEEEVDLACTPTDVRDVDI
SMILES,inhibition of neointima formation [1],melting point [°C],IC50 [2] [nM],IC50 [3] [µM],IC50 [4] [µM]
COc1ccc(CNc2nc(N(CCO)CCO)nc3c2ncn3C(C)C)cc1 [CVT-313],greater than 80%,,,,
"COCCN(CCOC)c1ccc(Nc2ncc3c(C)c(C(C)=O)c(=O)n(C4CCCC4)c3n2)nc1 [Example 55, 6-Acetyl-2-{5-[bis-(2-methoxy-ethyl)-amino]-pyridin-2-ylamino}-8-cyclopentyl-5-methyl-8H-pyrido[2,3-d]pyrimidin-7-one]",,138,24,> 5,> 5
